Assay results: ChEMBL document CHEMBL3351595, “Cyclic acyl guanidines bearing carbamate moieties allow potent and dirigible cholinesterase inhibition of either acetyl- or butyrylcholinesterase” (Bioorg Med Chem, 2014)
The source made the active and inactive calls. No cut-off for these calls is given here.

Columns and labels:
HT-22 [1] = experiment: Toxicity against mouse HT22 cells assessed as reduction in cell viability at 1 to 25 uM by MTT assay; type: cell-based; settings: ht-22, 25 µM
[2] = biological target: Acetylcholinesterase (Electrophorus electricus) (UniProt O42275); experiment: Inhibition of electric eel AChE at 50 uM using ATC iodide substrate by DTNB based assay
[3] = biological target: Cholinesterase (Equus caballus) (UniProt P81908); experiment: Inhibition of equine serum BChE at 50 uM using ATC iodide substrate by DTNB based assay
HT-22 [4] = experiment: Neuroprotective activity in mouse HT22 cells assessed as reduction in glutamate-induced cytotoxicity at 10 to 25 uM by MTT assay; type: functional, cell-based
[5] = Antioxidant activity assessed as AAPH-induced peroxyl radicals scavenging activity by measuring Trolox equivalents by oxygen radical absorbance capacity-fluorescein assay; type: physicochemical
[6] = Selectivity index, ratio of IC50 for electric eel AChE to IC50 for quine serum BChE
Cholinesterase = Cholinesterase (Equus caballus, UniProt P81908); experiment: Inhibition of equine serum BChE using ATC iodide substrate by DTNB based assay
Acetylcholinesterase = Acetylcholinesterase (Electrophorus electricus, UniProt O42275); experiment: Inhibition of electric eel AChE using ATC iodide substrate by DTNB based assay
[7] = biological target: Cholinesterase (Equus caballus) (UniProt P81908); experiment: Inhibition of equine serum BChE assessed as rate constant of carbamoyl-enzyme formation pre-incubated for 80 mins by enzyme kinetic assay
[8] = biological target: Cholinesterase (Equus caballus) (UniProt P81908); experiment: Inhibition of equine serum BChE assessed as rate constant of carbamoyl-enzyme formation pre-incubated for 2 to 20 mins by enzyme kinetic assay
[9] = biological target: Cholinesterase (Equus caballus) (UniProt P81908); experiment: Inhibition of equine serum BChE assessed as stability constant of inhibitor-enzyme complex pre-incubated for 2 to 20 mins by enzyme kinetic assay
HT-22 [10] = experiment: Neuroprotective activity in mouse HT22 cells assessed as reduction in glutamate-induced cytotoxicity at 1 to 25 uM by MTT assay; type: functional, cell-based
[11] = biological target: Cholinesterase (Equus caballus) (UniProt P81908); experiment: Time dependent inhibition of equine serum BChE at 5 to 100 nM; settings: TDE = time-dependent effect
[12] = biological target: Acetylcholinesterase (Electrophorus electricus) (UniProt O42275); experiment: Inhibition of electric eel AChE assessed as stability constant of inhibitor-enzyme complex pre-incubated for 2 to 20 mins by enzyme kinetic assay
[13] = biological target: Acetylcholinesterase (Electrophorus electricus) (UniProt O42275); experiment: Inhibition of electric eel AChE assessed as rate constant of carbamoyl-enzyme formation pre-incubated for 2 to 20 mins by enzyme kinetic assay
[14] = biological target: Cholinesterase (Equus caballus) (UniProt P81908); experiment: Time dependent inhibition of equine serum BChE at 25 to 250 nM; settings: TDE = time-dependent effect
[15] = biological target: Acetylcholinesterase (Homo sapiens) (UniProt P22303); experiment: Inhibition of human erythrocyte AChE pre-incubated for 2 mins by enzyme kinetic assay
[16] = biological target: Acetylcholinesterase (Homo sapiens) (UniProt P22303); experiment: Inhibition of human erythrocyte AChE pre-incubated for 20 mins by enzyme kinetic assay
HT-22 [17] = experiment: Toxicity against mouse HT22 cells assessed as reduction in cell viability at 25 uM by MTT assay; type: cell-based; settings: ht-22, 25 µM
[18] = biological target: Cholinesterase (Equus caballus) (UniProt P81908); experiment: Inhibition of equine serum BChE at 100 uM using ATC iodide substrate by DTNB based assay
HT-22 [19] = experiment: Toxicity against mouse HT22 cells assessed as reduction in cell viability at 5 uM by MTT assay; type: cell-based; settings: ht-22, 5 µM
HT-22 [20] = experiment: Neuroprotective activity in mouse HT22 cells assessed as reduction in glutamate-induced cytotoxicity at 5 to 25 uM by MTT assay; type: functional, cell-based
[21] = biological target: Acetylcholinesterase (Electrophorus electricus) (UniProt O42275); experiment: Inhibition of electric eel AChE at 100 uM using ATC iodide substrate by DTNB based assay
HT-22 [22] = experiment: Neuroprotective activity in mouse HT22 cells assessed as reduction in glutamate-induced cytotoxicity at 25 uM by MTT assay; type: functional, cell-based

Acetylcholinesterase (Electrophorus electricus), sequence (O42275 24-633 limits assumed): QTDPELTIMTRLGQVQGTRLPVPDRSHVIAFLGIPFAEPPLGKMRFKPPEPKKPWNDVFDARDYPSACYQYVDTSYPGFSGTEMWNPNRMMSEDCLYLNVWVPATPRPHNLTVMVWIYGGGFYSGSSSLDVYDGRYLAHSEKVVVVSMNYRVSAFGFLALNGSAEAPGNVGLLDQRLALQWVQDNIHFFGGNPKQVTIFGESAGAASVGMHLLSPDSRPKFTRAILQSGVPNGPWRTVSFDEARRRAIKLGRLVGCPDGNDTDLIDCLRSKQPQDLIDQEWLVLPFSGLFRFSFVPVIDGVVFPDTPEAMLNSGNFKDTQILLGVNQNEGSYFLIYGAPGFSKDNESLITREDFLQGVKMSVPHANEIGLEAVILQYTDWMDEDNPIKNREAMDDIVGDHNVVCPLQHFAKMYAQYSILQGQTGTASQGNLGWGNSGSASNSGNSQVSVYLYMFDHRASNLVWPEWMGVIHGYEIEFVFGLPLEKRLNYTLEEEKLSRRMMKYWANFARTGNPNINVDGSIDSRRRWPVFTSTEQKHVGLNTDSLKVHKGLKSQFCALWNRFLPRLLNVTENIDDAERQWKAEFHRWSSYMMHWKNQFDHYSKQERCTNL
Cholinesterase, sequence (P81908 whole entry): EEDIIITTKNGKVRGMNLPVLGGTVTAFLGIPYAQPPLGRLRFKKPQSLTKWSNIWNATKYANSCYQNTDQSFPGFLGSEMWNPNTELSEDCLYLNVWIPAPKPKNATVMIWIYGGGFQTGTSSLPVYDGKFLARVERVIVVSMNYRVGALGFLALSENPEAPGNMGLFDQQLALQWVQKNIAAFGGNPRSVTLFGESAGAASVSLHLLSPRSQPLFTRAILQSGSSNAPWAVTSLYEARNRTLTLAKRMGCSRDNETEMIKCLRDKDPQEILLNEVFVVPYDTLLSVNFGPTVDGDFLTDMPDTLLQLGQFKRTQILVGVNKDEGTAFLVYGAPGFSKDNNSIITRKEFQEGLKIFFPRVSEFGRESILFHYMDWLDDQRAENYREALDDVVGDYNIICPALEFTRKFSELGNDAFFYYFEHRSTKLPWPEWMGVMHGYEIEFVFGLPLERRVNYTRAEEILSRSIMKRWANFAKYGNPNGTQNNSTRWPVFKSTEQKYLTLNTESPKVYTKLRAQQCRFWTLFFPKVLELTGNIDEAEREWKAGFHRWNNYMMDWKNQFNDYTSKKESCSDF
Cholinesterase (Equus caballus), sequence (P81908 whole entry): as above
Acetylcholinesterase, sequence (O42275 whole entry): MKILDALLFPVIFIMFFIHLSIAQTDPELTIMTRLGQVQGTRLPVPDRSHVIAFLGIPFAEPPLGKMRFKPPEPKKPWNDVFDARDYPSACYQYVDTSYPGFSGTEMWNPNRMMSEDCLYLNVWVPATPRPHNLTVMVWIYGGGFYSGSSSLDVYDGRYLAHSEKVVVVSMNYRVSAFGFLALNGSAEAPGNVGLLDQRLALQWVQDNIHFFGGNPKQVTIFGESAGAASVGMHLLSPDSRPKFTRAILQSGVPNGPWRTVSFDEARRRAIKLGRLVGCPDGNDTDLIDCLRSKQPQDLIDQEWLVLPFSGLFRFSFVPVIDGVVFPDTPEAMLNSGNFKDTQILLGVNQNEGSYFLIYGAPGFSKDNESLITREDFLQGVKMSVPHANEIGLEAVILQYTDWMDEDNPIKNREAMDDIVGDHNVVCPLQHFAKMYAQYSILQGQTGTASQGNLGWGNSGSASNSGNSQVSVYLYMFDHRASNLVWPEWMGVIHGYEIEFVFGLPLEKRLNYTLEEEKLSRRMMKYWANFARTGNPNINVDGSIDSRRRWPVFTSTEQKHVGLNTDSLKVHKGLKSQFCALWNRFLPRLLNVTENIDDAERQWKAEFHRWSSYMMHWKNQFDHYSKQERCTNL
Acetylcholinesterase (Homo sapiens), sequence (P22303 whole entry): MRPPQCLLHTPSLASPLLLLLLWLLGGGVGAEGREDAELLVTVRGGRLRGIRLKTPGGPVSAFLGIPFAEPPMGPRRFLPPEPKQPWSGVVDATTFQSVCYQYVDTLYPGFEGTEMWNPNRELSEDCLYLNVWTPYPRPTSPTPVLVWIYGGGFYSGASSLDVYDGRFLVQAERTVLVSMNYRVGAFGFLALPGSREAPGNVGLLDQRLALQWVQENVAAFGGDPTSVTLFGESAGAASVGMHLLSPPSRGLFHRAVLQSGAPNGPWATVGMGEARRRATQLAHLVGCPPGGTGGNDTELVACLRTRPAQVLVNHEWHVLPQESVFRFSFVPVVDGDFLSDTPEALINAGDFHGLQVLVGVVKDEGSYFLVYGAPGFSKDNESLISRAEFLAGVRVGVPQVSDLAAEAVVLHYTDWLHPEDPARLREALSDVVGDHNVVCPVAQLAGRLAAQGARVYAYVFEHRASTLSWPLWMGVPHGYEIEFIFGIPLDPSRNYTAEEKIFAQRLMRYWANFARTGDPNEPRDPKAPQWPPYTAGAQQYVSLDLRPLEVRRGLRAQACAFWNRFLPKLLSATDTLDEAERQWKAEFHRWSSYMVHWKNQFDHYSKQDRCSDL

| SMILES | Ratio IC50 [6] | IC50 (Cholinesterase; read-out: IC50) [µM] | IC50 (Acetylcholinesterase; read-out: IC50) [µM] | further results |
| --- | --- | --- | --- | --- |
| CN1CCCn2c1nc1ccc(O)cc1c2=O |  |  |  | Activity (HT-22 [1]): Non-toxic; inhibition [2]: 61%; inhibition [3]: 9%; Activity (HT-22 [4]): Active; Activity [5]: 1.54 equiv |
| CCCCNC(=O)Oc1ccc2c(c1)C(=O)N1CCCN=C1N2C | 0.09 | 43.9 | 3.84 |  |
| CC(C)c1ccc(NC(=O)Oc2ccc3nc4n(c(=O)c3c2)CCCN4Cc2ccccc2)cc1 |  |  |  | inhibition [2]: 30%; inhibition [3]: 6% |
| CN1C2=NCCCN2C(=O)c2cc(OCc3ccccc3)ccc21 | 0.03 | 21.4 | 0.7 |  |
| CCCCCCCNC(=O)Oc1ccc2nc3n(c(=O)c2c1)CCCN3CCCN1CCCCC1 | 322 | 0.0247 | 7.95 | Activity (HT-22 [1]): Non-toxic; inhibition [7]: inactive; K [8]: 0.125 min⁻¹; K [9]: 1.3 nM; Activity (HT-22 [10]): inactive; inhibition [11]: tde |
| CNC(=O)Oc1ccc2c(c1)[C@]1(C)CCN(C)[C@@H]1N2C |  |  |  | K [8]: 0.067 min⁻¹; K [9]: 41.1 nM; K [12]: 34.3 nM; K [13]: 0.123 min⁻¹ |
| CCCCCCCNC(=O)Oc1ccc2c(c1)C(=O)N1CCCN=C1N2C | 26.1 | 0.14 | 3.64 |  |
| CN1CCCN2Cc3cc(OCc4ccccc4)ccc3N=C12 | 0.2 | 4.17 | 0.826 |  |
| CC(C)c1ccc(NC(=O)Oc2ccc3c(c2)C(=O)N2CCCN=C2N3C)cc1 | 0.03 | 3.26 | 0.0837 | Activity (HT-22 [1]): Non-toxic; inhibition [7]: inactive; inhibition [14]: tde; inhibition [15]: Active; K [12]: 43.5 nM; Activity (HT-22 [10]): inactive; inhibition [16]: inactive; K [13]: 0.09 min⁻¹ |
| CCCCCCCNC(=O)Oc1ccc2nc3n(c(=O)c2c1)CCCN3C | 3.41 | 1.75 | 5.98 |  |
| O=c1c2cc(OCc3ccccc3)ccc2nc2n1CCCN2CCCN1CCCCC1 | 1.6 | 0.81 | 1.31 | IC50 (Acetylcholinesterase; read-out: pIC50 (converted)): 1.35 µM |
| O=c1c2cc(O)ccc2nc2n1CCCN2 | 0.28 |  | 55.6 | Activity (HT-22 [17]): Toxic; inhibition [18]: 24%; Activity (HT-22 [10]): inactive; IC50 (Acetylcholinesterase; read-out: pIC50 (converted)): 55 µM |
| O=C1c2ccccc2NC2=NCCCN12 | 0.3 |  | 29.6 | inhibition [18]: 47%; Activity (HT-22 [10]): inactive; Activity (HT-22 [19]): Toxic |
| CN1C2=NCCCN2C(=O)c2cc(OC(=O)Nc3ccc(C(C)(C)C)cc3)ccc21 | < 0.004 |  | 0.2 |  |
| CCCCNC(=O)Oc1ccc2nc3n(c(=O)c2c1)CCCN3Cc1ccccc1 |  |  |  | inhibition [2]: 41%; inhibition [3]: 8% |
| O=c1c2cc(O)ccc2nc2n1CCCN2Cc1ccccc1 |  |  |  | Activity (HT-22 [1]): Non-toxic; inhibition [2]: 41%; inhibition [3]: 40%; Activity [5]: 1.56 equiv; Activity (HT-22 [17]): Toxic; Activity (HT-22 [20]): Active |
| CN1C2=NCCCN2C(=O)c2cc(O)ccc21 | 0.21 | 55.5 | 11.8 | Activity (HT-22 [1]): Non-toxic; Activity (HT-22 [4]): inactive; Activity (HT-22 [10]): inactive |

| SMILES | Ratio IC50 [6] | IC50 (Cholinesterase; read-out: IC50) [µM] | IC50 (Acetylcholinesterase; read-out: IC50) [µM] | further results |
| --- | --- | --- | --- | --- |
| CCCCCCCNC(=O)Oc1ccc2nc3n(c(=O)c2c1)CCCN3Cc1ccccc1 | 3.51 | 25.3 | 88.8 |  |
| CC(C)c1ccc(NC(=O)Oc2ccc3nc4n(c(=O)c3c2)CCCN4C)cc1 | > 5.6 | 17.7 |  | inhibition [21]: 50% |
| CC(C)c1ccc(NC(=O)Oc2ccc3nc4n(c(=O)c3c2)CCCN4CCCN2CCCCC2)cc1 | 3.1 | 0.25 | 0.78 |  |
| O=c1c2cc(OCc3ccccc3)ccc2nc2n1CCCN2Cc1ccccc1 |  |  |  | inhibition [21]: 20%; inhibition [18]: 10% |
| COc1cccc(NC(=O)Oc2ccc3c(c2)C(=O)N2CCCN=C2N3C)c1 | 0.06 | 52.2 | 2.9 |  |
| CCCCNC(=O)Oc1ccc2c(c1)CN1CCCN(C)C1=N2 | 2.31 | 1.34 | 3.13 | IC50 (Cholinesterase; read-out: pIC50 (converted)): 3.89 µM |
| COc1cccc(NC(=O)Oc2ccc3nc4n(c(=O)c3c2)CCCN4Cc2ccccc2)c1 |  |  |  | inhibition [2]: 35%; inhibition [3]: 11% |
| CCCCNC(=O)Oc1ccc2nc3n(c(=O)c2c1)CCCN3CCCN1CCCCC1 | 6.35 | 1.1 | 6.91 |  |
| COc1cccc(NC(=O)Oc2ccc3nc4n(c(=O)c3c2)CCCN4C)c1 | 0.33 | 12.6 | 5.46 |  |
| CN1CCCN2Cc3cc(O)ccc3N=C12 | < 0.3 |  | 15.9 | Activity (HT-22 [22]): Active; Activity (HT-22 [1]): Non-toxic; inhibition [3]: 53%; Activity (HT-22 [4]): inactive; Activity [5]: 1.34 equiv; Activity (HT-22 [10]): inactive |
| CN1CCCn2c1nc1ccc(OCc3ccccc3)cc1c2=O | 0.21 | 81.7 | 15.6 |  |
| COc1cccc(NC(=O)Oc2ccc3nc4n(c(=O)c3c2)CCCN4CCCN2CCCCC2)c1 | 16.2 | 0.45 | 7.3 | IC50 (Cholinesterase; read-out: pIC50 (converted)): 25.7 µM |
| CCCCCCCNC(=O)Oc1ccc2c(c1)CN1CCCN(C)C1=N2 | 5.31 | 0.63 | 3.36 |  |
| CCCCNC(=O)Oc1ccc2nc3n(c(=O)c2c1)CCCN3C | 0.37 | 44.3 | 16.3 |  |
| O=c1c2cc(O)ccc2nc2n1CCCN2CCCN1CCCCC1 | 1 | 22.7 | 22.9 | Activity (HT-22 [4]): inactive |
| CC(C)c1ccc(NC(=O)Oc2ccc3nc4n(c(=O)c3c2)CCCN4)cc1 | 0.5 |  |  | inhibition [2]: 34%; inhibition [3]: 19% |
| O=c1c2cc(OCc3ccccc3)ccc2nc2n1CCCN2 | 0.19 |  | 19.3 | inhibition [3]: 20%; IC50 (Acetylcholinesterase; read-out: pIC50 (converted)): 19.1 µM |
